The text below walks through data of patent US11325899B2, “Benzofurane and benzothiophene derivatives as PGE2 receptor modulators” (IDORSIA PHARMACEUTICALS LTD, priority 2017, dated 2022).

The target in the test is T1, EP2 receptor (Homo sapiens, UniProt P43116).
T1 construct: SF295 glioblastoma cells express high endogenous EP2 and no EP4; host or cells: SF295 glioblastoma cells
T1 sequence (P43116 whole entry): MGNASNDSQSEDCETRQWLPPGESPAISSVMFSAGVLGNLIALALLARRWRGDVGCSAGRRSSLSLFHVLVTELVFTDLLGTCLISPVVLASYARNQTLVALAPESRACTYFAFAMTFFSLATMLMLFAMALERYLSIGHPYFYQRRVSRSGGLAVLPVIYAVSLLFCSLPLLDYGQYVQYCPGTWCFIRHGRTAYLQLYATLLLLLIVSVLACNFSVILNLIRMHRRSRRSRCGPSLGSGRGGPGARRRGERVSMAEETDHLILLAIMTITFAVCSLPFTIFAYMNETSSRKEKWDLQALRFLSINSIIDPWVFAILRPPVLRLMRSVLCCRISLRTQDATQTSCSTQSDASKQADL
As to the kind of experiment: hEP2 cAMP assay (SF295 glioblastoma cells, HTRF cAMP, PGE2 stimulation). The note with it: antagonistic activity. Type of test: cell-based. The method, boiled down:
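HTRF cAMP readout gave % cAMP relative to DMSO, fitted to IC50 with duplicate points. Compounds were preincubated 45 min at room temperature with EP2-expressing, EP4-negative SF295 cells in IBMX (2 mM)-containing buffer before a 30 min challenge with PGE2 at 75 nM final, its EC80.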
Consider `Cc1sc2c(C)cc(F)cc2c1CCNc1cc(-c2ccc(C(=O)O)c(OC(F)F)c2)ncn1` [Example 115, 2-Difluoromethoxy-4-{6-[2-(5-fluoro-2,7-dimethyl-benzo[b]thiophen-3-yl)-ethylamino]-pyrimidin-4-yl}-benzoic acid], for which half-maximal inhibition (IC50) was put at 0.008 µM.
The compound `COc1ccc(Cl)c2c(CCNc3cc(-c4ccc(C(=O)O)c(OC(F)F)c4)ncn3)c(C)sc12` [Example 116, 4-{6-[2-(4-Chloro-7-methoxy-2-methyl-benzo[b]thiophen-3-yl)-ethylamino]-pyrimidin-4-yl}-2-difluoromethoxy-benzoic acid] displayed an IC50 of 0.035 µM.
Regarding `CCOc1cc(-c2cc(NCCc3c(C)sc4c(OC)ccc(F)c34)ncn2)ccc1OCC(=O)O` [Example 117, (2-Ethoxy-4-{6-[2-(4-fluoro-7-methoxy-2-methyl-benzo[b]thiophen-3-yl)-ethylamino]-pyrimidin-4-yl}-phenoxy)-acetic acid], the IC50 was 0.101 µM.
The same measure for `CCOc1cc(-c2cc(NCCc3c(C)sc4c(C)ccc(F)c34)ncn2)ccc1OCC(=O)O` [Example 118, (2-Ethoxy-4-{6-[2-(4-fluoro-2,7-dimethyl-benzo[b]thiophen-3-yl)-ethylamino]-pyrimidin-4-yl}-phenoxy)-acetic acid]: 0.112 µM; for `CCOc1cc(-c2cc(NCCc3c(C)sc4c(C)c(F)ccc34)ncn2)ccc1OCC(=O)O` [Example 119, (2-Ethoxy-4-{6-[2-(6-fluoro-2,7-dimethyl-benzo[b]thiophen-3-yl)-ethylamino]-pyrimidin-4-yl}-phenoxy)-acetic acid]: 0.119 µM; for `CCOc1cc(-c2cc(NCCc3c(C)oc4c(Cl)cccc34)ncn2)ccc1OCC(=O)O` [Example 120, (4-{6-[2-(7-Chloro-2-methyl-benzofuran-3-yl)-ethylamino]-pyrimidin-4-yl}-2-ethoxy-phenoxy)-acetic acid]: 0.059 µM.
To `CCOc1cc(-c2cc(NCCc3c(C)oc4c(OC)cc(Cl)cc34)ncn2)ccc1OCC(=O)O` [Example 121, (4-{6-[2-(5-Chloro-7-methoxy-2-methyl-benzofuran-3-yl)-ethylamino]-pyrimidin-4-yl}-2-ethoxy-phenoxy)-acetic acid] belongs 0.155 µM; to `CCOc1cc(-c2cc(NCCc3c(C)sc4c(C)cccc34)ncn2)ccc1OCC(=O)O` [Example 122, (4-{6-[2-(2,7-Dimethyl-benzo[b]thiophen-3-yl)-ethylamino]-pyrimidin-4-yl}-2-ethoxy-phenoxy)-acetic acid], 0.04 µM; to `CCCCOc1cc(-c2cc(NCCc3c(C)sc4c(C)cc(F)cc34)ncn2)ccc1C(=O)O` [Example 127, 2-Butoxy-4-{6-[2-(5-fluoro-2,7-dimethyl-benzo[b]thiophen-3-yl)-ethylamino]-pyrimidin-4-yl}-benzoic acid], 0.106 µM.
The same measure for `Cc1oc2ccccc2c1CCNc1cc(-c2ccc(C(=O)O)c(SC3CCC3)c2)ncn1` [Example 129, 2-Cyclobutylsulfanyl-4-{6-[2-(2-methyl-benzofuran-3-yl)-ethylamino]-pyrimidin-4-yl}-benzoic acid]: 0.015 µM.
In the case of `Cc1sc2c(C)cccc2c1CCNc1cc(-c2ccc(C(=O)O)c(SC3CCC3)c2)ncn1` [Example 130, 2-Cyclobutylsulfanyl-4-{6-[2-(2,7-dimethyl-benzo[b]thiophen-3-yl)-ethylamino]-pyrimidin-4-yl}-benzoic acid], the IC50 was determined as 0.02 µM.
To `Cc1sc2c(C)cccc2c1CCNc1cc(-c2ccc(C(=O)O)c(SC3COC3)c2)ncn1` [Example 131, 4-{6-[2-(2,7-Dimethyl-benzo[b]thiophen-3-yl)-ethylamino]-pyrimidin-4-yl}-2-(oxetan-3-ylsulfanyl)-benzoic acid] belongs 0.022 µM.
The same measure for `O=C(O)c1ccc(-c2cc(NCCc3csc4ccccc34)ncn2)cc1OC1CCC1` [Example 132, 4-[6-(2-Benzo[b]thiophen-3-yl-ethylamino)-pyrimidin-4-yl]-2-cyclobutoxy-benzoic acid]: 0.167 µM.
The same measure for `COc1cc(Cl)cc2c(CCNc3cc(-c4ccc(C(=O)O)c(OC5CCC5)c4)ncn3)c(C)oc12` [Example 133, 4-{6-[2-(5-Chloro-7-methoxy-2-methyl-benzofuran-3-yl)-ethylamino]-pyrimidin-4-yl}-2-cyclobutoxy-benzoic acid]: 0.068 µM; for `COc1ccc(F)c2c(CCNc3cc(-c4ccc(C(=O)O)c(OC5CCC5)c4)ncn3)c(C)sc12` [Example 134, 2-Cyclobutoxy-4-{6-[2-(4-fluoro-7-methoxy-2-methyl-benzo[b]thiophen-3-yl)-ethylamino]-pyrimidin-4-yl}-benzoic acid]: 0.046 µM.
For the compound `COc1ccc(Cl)c2c(CCNc3cc(-c4ccc(C(=O)O)c(OC5CCC5)c4)ncn3)c(C)sc12` [Example 135, 4-{6-[2-(4-Chloro-7-methoxy-2-methyl-benzo[b]thiophen-3-yl)-ethylamino]-pyrimidin-4-yl}-2-cyclobutoxy-benzoic acid], the IC50 turned out to be 0.03 µM.
The same measure for `Cc1sc2c(C)ccc(F)c2c1CCNc1cc(-c2ccc(C(=O)O)c(OC3CCC3)c2)ncn1` [Example 136, 2-Cyclobutoxy-4-{6-[2-(4-fluoro-2,7-dimethyl-benzo[b]thiophen-3-yl)-ethylamino]-pyrimidin-4-yl}-benzoic acid]: 0.091 µM; for `Cc1oc2c(Cl)cccc2c1CCNc1cc(-c2ccc(C(=O)O)c(OC3CCC3)c2)ncn1` [Example 137, 4-{6-[2-(7-Chloro-2-methyl-benzofuran-3-yl)-ethylamino]-pyrimidin-4-yl}-2-cyclobutoxy-benzoic acid]: 0.049 µM.
The same measure for `Cc1sc2c(C)cc(F)cc2c1CCNc1cc(-c2ccc(C(=O)O)c(OC3CCC3)c2)ncn1` [Example 138, 2-Cyclobutoxy-4-{6-[2-(5-fluoro-2,7-dimethyl-benzo[b]thiophen-3-yl)-ethylamino]-pyrimidin-4-yl}-benzoic acid]: 0.075 µM; for `COc1ccc(F)c2c(CCNc3cc(-c4ccc(C(=O)O)c(OC5CCC5)c4)ncn3)c(C)oc12` [Example 139, 2-Cyclobutoxy-4-{6-[2-(4-fluoro-7-methoxy-2-methyl-benzofuran-3-yl)-ethylamino]-pyrimidin-4-yl}-benzoic acid]: 0.245 µM.
Compound `Cc1oc2c(C)cc(F)cc2c1CCNc1cc(-c2ccc(C(=O)O)c(OC3CCC3)c2)ncn1` [Example 140, 2-Cyclobutoxy-4-{6-[2-(5-fluoro-2,7-dimethyl-benzofuran-3-yl)-ethylamino]-pyrimidin-4-yl}-benzoic acid] gave an IC50 of 0.072 µM.
In the case of `COc1cc(F)c(F)c2c(CCNc3cc(-c4ccc(C(=O)O)c(OC5CCC5)c4)ncn3)c(C)oc12` [Example 141, 2-Cyclobutoxy-4-{6-[2-(4,5-difluoro-7-methoxy-2-methyl-benzofuran-3-yl)-ethylamino]-pyrimidin-4-yl}-benzoic acid], the IC50 came out at 0.111 µM.
To `CCOc1cc(-c2cc(NCCc3c(C)sc4c(C)cc(F)cc34)ncn2)ccc1-c1nnn[nH]1` [Example 142, {6-[3-Ethoxy-4-(1H-tetrazol-5-yl)-phenyl]-pyrimidin-4-yl}-[2-(5-fluoro-2,7-dimethyl-benzo[b]thiophen-3-yl)-ethyl]-amine] belongs 0.038 µM; to `CCOc1cc(-c2cc(NCCc3c(C)sc4c(C)cc(F)cc34)ncn2)ccc1OCCC(=O)O` [Example 143, 3-(2-Ethoxy-4-{6-[2-(5-fluoro-2,7-dimethyl-benzo[b]thiophen-3-yl)-ethylamino]-pyrimidin-4-yl}-phenoxy)-propionic acid], 0.086 µM; to `CCCCOc1cc(-c2cc(NCCc3c(C)sc4c(C)cc(F)cc34)ncn2)cc(F)c1C(=O)O` [Example 144, 2-Butoxy-6-fluoro-4-{6-[2-(5-fluoro-2,7-dimethyl-benzo[b]thiophen-3-yl)-ethylamino]-pyrimidin-4-yl}-benzoic acid], 0.026 µM.
The same measure for `COc1ccc(F)c2c(CCNc3cc(-c4ccc(C(=O)O)c(OC5CCC5)c4F)ncn3)c(C)sc12` [Example 146, 2-Cyclobutoxy-3-fluoro-4-{6-[2-(4-fluoro-7-methoxy-2-methyl-benzo[b]thiophen-3-yl)-ethylamino]-pyrimidin-4-yl}-benzoic acid]: 0.047 µM; for `COc1cc(Cl)cc2c(CCNc3cc(-c4ccc(C(=O)O)c(OC5CCC5)c4F)ncn3)c(C)oc12` [Example 147, 4-{6-[2-(5-Chloro-7-methoxy-2-methyl-benzofuran-3-yl)-ethylamino]-pyrimidin-4-yl}-2-cyclobutoxy-3-fluoro-benzoic acid]: 0.117 µM.
The same measure for `Cc1sc2c(C)ccc(F)c2c1CCNc1cc(-c2cc(F)c(C(=O)O)c(OC3CCC3)c2)ncn1` [Example 148, 2-Cyclobutoxy-6-fluoro-4-{6-[2-(4-fluoro-2,7-dimethyl-benzo[b]thiophen-3-yl)-ethylamino]-pyrimidin-4-yl}-benzoic acid]: 0.109 µM.
In the case of `COc1ccc(F)c2c(CCNc3cc(-c4cc(F)c(C(=O)O)c(OC5CCC5)c4)ncn3)c(C)sc12` [Example 149, 2-Cyclobutoxy-6-fluoro-4-{6-[2-(4-fluoro-7-methoxy-2-methyl-benzo[b]thiophen-3-yl)-ethylamino]-pyrimidin-4-yl}-benzoic acid], the IC50 was determined as 0.114 µM.
Turning to `COc1cc(F)c(F)c2c(CCNc3cc(-c4cc(F)c(C(=O)O)c(OC5CCC5)c4)ncn3)c(C)oc12` [Example 150, 2-Cyclobutoxy-4-{6-[2-(4,5-difluoro-7-methoxy-2-methyl-benzofuran-3-yl)-ethylamino]-pyrimidin-4-yl}-6-fluoro-benzoic acid], the IC50 was determined as 0.097 µM.
For the compound `COc1cc(Cl)cc2c(CCNc3cc(-c4cc(F)c(C(=O)O)c(OC5CCC5)c4)ncn3)c(C)oc12` [Example 151, 4-{6-[2-(5-Chloro-7-methoxy-2-methyl-benzofuran-3-yl)-ethylamino]-pyrimidin-4-yl}-2-cyclobutoxy-6-fluoro-benzoic acid], the IC50 was determined as 0.095 µM.
